In patent publication US20160145202A1 (priority 2013, published 2016):

Test system: Septoria tritici
Assay: Glass house trial: control of leaf blotch on wheat caused by Septoria tritici (SEPTTR_P1)
Format: in vivo
Settings: 300 ppm, protective P1, wheat seedlings sprayed to run-off, visually assessed after 4 weeks
Method: The spray solutions were prepared in several steps:
The stock solution was prepared as follows: 0.84 ml of a 1:1 mixture of cyclohexanone and dimethylsulfoxide was added to 16.8 mg of active ingredient. Next, 27.16 ml of a mixture of water, acetone (10%), the emulsifier Wettol (0.1%) and the wetting agent Silwet (0.05%) was added.
This stock solution was then further diluted with the described solvent-emulsifier-water mixture to the desired concentrations. Two different compound applications were used: “protective, P1” and “curative, K1”, where the first means that the compound solution is applied a day before the fungus while the latter represents the opposite ordering.
Control of Leaf Blotch on Wheat Caused by Septoria tritici (SEPTTR_P1)
Leaves of pot-grown wheat seedling were sprayed to run-off with an aqueous suspension of F-1 (300 ppm), prepared as described. The plants were allowed to air-dry. At the following day the plants were inoculated with an aqueous spore suspension of Septoria tritici. Then the trial plants were immediately transferred to a humid chamber at 18-22° C. and a relative humidity close to 100%. After 4 days the plants were transferred to a chamber with 18-22° C. and a relative humidity close to 70%.

SMILES: CNC(=O)OCc1cc(/C(C)=N/OCc2cccc(C)n2)ccc1Cl [F-1, [2-chloro-5-[(E)-C-methyl-N-[(6-methyl-2-pyridyl)methoxy]carbonimidoyl]phenyl]methyl N-methylcarbamate]
- extent of fungal attack on the leaves (infection compared to untreated plants): ≤ 30%
